Measurements reported in the NIST ThermoML archive (doi:10.1021/je700260f).

Details: Liquid, Vibrating tube method

FC(C(F)(F)F)C(F)(F)F [1,1,1,2,3,3,3-heptafluoropropane]
Details	mass density [kg/m3]
303.15 K, 31383 kPa	1520.3
303.15 K, 31415 kPa	1520.5
303.15 K, 31442 kPa	1520.5
303.15 K, 31478 kPa	1520.6
303.15 K, 31506 kPa	1520.8
303.15 K, 31538 kPa	1520.8
303.15 K, 31570 kPa	1521.1
303.15 K, 31607 kPa	1521.1
303.15 K, 31634 kPa	1521.1
303.15 K, 31671 kPa	1521.3
303.15 K, 31699 kPa	1521.4
303.15 K, 31745 kPa	1521.4
303.15 K, 31773 kPa	1521.7
303.15 K, 31806 kPa	1521.7
303.15 K, 31839 kPa	1521.9
303.15 K, 31871 kPa	1521.8
303.15 K, 31914 kPa	1522
303.15 K, 33938 kPa	1528.3
303.15 K, 33968 kPa	1528.3
303.15 K, 34013 kPa	1528.4
303.15 K, 34044 kPa	1528.6
303.15 K, 34091 kPa	1528.8
303.16 K, 1756 kPa	1377.1
303.16 K, 1773 kPa	1377.2
303.16 K, 1841 kPa	1377.8
303.16 K, 2155 kPa	1380.4
303.16 K, 2175 kPa	1380.5
303.16 K, 2196 kPa	1380.8
303.16 K, 2220 kPa	1380.9
303.16 K, 2238 kPa	1381
303.16 K, 2262 kPa	1381.2
303.16 K, 2781 kPa	1385.3
303.16 K, 2809 kPa	1385.5
303.16 K, 2833 kPa	1385.7
303.16 K, 2855 kPa	1385.8
303.16 K, 2874 kPa	1386.1
303.16 K, 2903 kPa	1386.2
303.16 K, 2923 kPa	1386.5
303.16 K, 2945 kPa	1386.6
303.16 K, 2970 kPa	1386.7
303.16 K, 3045 kPa	1387.3
303.16 K, 3161 kPa	1388.3
303.16 K, 3180 kPa	1388.4
303.16 K, 3245 kPa	1388.9
303.16 K, 3334 kPa	1389.4
303.16 K, 4314 kPa	1396.7
303.16 K, 4345 kPa	1396.9
303.16 K, 4366 kPa	1397.2
303.16 K, 4395 kPa	1397.2
303.16 K, 4845 kPa	1400.4
303.16 K, 9092 kPa	1427.1
303.16 K, 9131 kPa	1427.4
303.16 K, 9158 kPa	1427.5
303.16 K, 9192 kPa	1427.6
303.16 K, 9223 kPa	1427.9
303.16 K, 20848 kPa	1482.9
303.16 K, 20912 kPa	1483.1
303.16 K, 20941 kPa	1483.3
303.16 K, 20974 kPa	1483.4
303.16 K, 21003 kPa	1483.6
313.14 K, 2256 kPa	1337.4
313.14 K, 2281 kPa	1337.6
313.14 K, 2307 kPa	1337.9
313.14 K, 2329 kPa	1337.9
313.14 K, 2362 kPa	1338.4
313.14 K, 2381 kPa	1338.6
313.14 K, 2406 kPa	1338.8
313.14 K, 2431 kPa	1339.2
313.14 K, 2463 kPa	1339.5
313.14 K, 2485 kPa	1339.7
313.14 K, 2518 kPa	1339.8
313.14 K, 2546 kPa	1340.2
313.14 K, 2571 kPa	1340.5
313.14 K, 2596 kPa	1340.7
313.14 K, 2621 kPa	1340.9
313.14 K, 2650 kPa	1341.2
313.14 K, 2671 kPa	1341.5
313.14 K, 3117 kPa	1345.6
313.14 K, 3144 kPa	1345.9
313.14 K, 3170 kPa	1346
313.14 K, 3193 kPa	1346.3
313.14 K, 3223 kPa	1346.7
313.14 K, 3247 kPa	1346.8
313.14 K, 3275 kPa	1347
313.14 K, 4237 kPa	1355.5
313.14 K, 4266 kPa	1355.8
313.14 K, 4299 kPa	1356.1
313.14 K, 4328 kPa	1356.3
313.14 K, 4487 kPa	1357.8
313.14 K, 4509 kPa	1358
313.14 K, 4539 kPa	1358.2
313.14 K, 4561 kPa	1358.3
313.14 K, 4590 kPa	1358.4
313.14 K, 4614 kPa	1358.7
313.14 K, 4639 kPa	1359
313.14 K, 4660 kPa	1359.2
313.14 K, 4688 kPa	1359.4
313.14 K, 4710 kPa	1359.5
313.14 K, 5002 kPa	1362.2
313.14 K, 6187 kPa	1371.4
313.14 K, 6210 kPa	1371.5
313.14 K, 6240 kPa	1371.6
313.14 K, 6264 kPa	1371.8
313.14 K, 6295 kPa	1372.2
313.14 K, 6319 kPa	1372.4
313.14 K, 6347 kPa	1372.4
313.14 K, 6379 kPa	1372.7
313.14 K, 8595 kPa	1388.5
313.14 K, 12590 kPa	1413.1
313.14 K, 13048 kPa	1415.8
313.14 K, 13083 kPa	1416
313.14 K, 14273 kPa	1422.5
313.14 K, 14312 kPa	1422.7
313.14 K, 14342 kPa	1422.9
313.14 K, 18535 kPa	1443.8
313.14 K, 18569 kPa	1443.9
313.14 K, 18598 kPa	1444.1
313.14 K, 18633 kPa	1444.1
313.14 K, 18662 kPa	1444.3
313.14 K, 25516 kPa	1473.5
313.14 K, 25569 kPa	1473.8
313.14 K, 25615 kPa	1473.9
313.14 K, 25663 kPa	1474
313.14 K, 25698 kPa	1474.2
313.14 K, 25734 kPa	1474.4
313.14 K, 25776 kPa	1474.5
313.14 K, 25819 kPa	1474.7
313.14 K, 25862 kPa	1474.7
313.14 K, 25905 kPa	1475
313.14 K, 25953 kPa	1475.3
313.14 K, 25993 kPa	1475.3
313.14 K, 26035 kPa	1475.5
313.14 K, 26070 kPa	1475.7
313.14 K, 26129 kPa	1475.7
313.14 K, 26171 kPa	1475.9
313.14 K, 26230 kPa	1476.2
313.14 K, 26265 kPa	1476.5
313.14 K, 26307 kPa	1476.7
313.14 K, 26355 kPa	1476.6
313.14 K, 26384 kPa	1476.9
313.14 K, 26431 kPa	1477
313.14 K, 26467 kPa	1477.1
313.14 K, 26516 kPa	1477.3
313.14 K, 26563 kPa	1477.5
313.14 K, 26598 kPa	1477.7
313.14 K, 26634 kPa	1477.8
313.14 K, 26676 kPa	1477.9
313.14 K, 26712 kPa	1478
313.14 K, 26759 kPa	1478.2
313.14 K, 26806 kPa	1478.3
313.14 K, 26855 kPa	1478.6
313.14 K, 26891 kPa	1478.6
313.14 K, 26928 kPa	1478.9
313.14 K, 26976 kPa	1479
313.14 K, 27297 kPa	1480.2
313.14 K, 27651 kPa	1481.6
313.14 K, 27676 kPa	1481.7
313.14 K, 27719 kPa	1481.9
313.14 K, 27749 kPa	1482
313.14 K, 27835 kPa	1482.4
313.14 K, 27864 kPa	1482.4
313.14 K, 28790 kPa	1485.8
313.14 K, 28820 kPa	1485.9
313.14 K, 28855 kPa	1486.1
313.14 K, 28889 kPa	1486.1
313.14 K, 28918 kPa	1486.2
313.14 K, 28953 kPa	1486.3
313.14 K, 28993 kPa	1486.5
313.14 K, 29033 kPa	1486.8
313.14 K, 29059 kPa	1486.6
313.14 K, 29641 kPa	1489
313.14 K, 29682 kPa	1489.1
313.14 K, 29711 kPa	1489.2
313.14 K, 29757 kPa	1489.4
313.14 K, 29798 kPa	1489.5
313.14 K, 29841 kPa	1489.5
313.14 K, 29883 kPa	1489.8
313.14 K, 29915 kPa	1489.9
313.14 K, 29950 kPa	1489.9
313.14 K, 29980 kPa	1490.2
313.14 K, 30015 kPa	1490.2
313.14 K, 30045 kPa	1490.2
313.14 K, 30081 kPa	1490.3
313.14 K, 30117 kPa	1490.6
313.14 K, 30159 kPa	1490.6
313.14 K, 30185 kPa	1490.7
313.14 K, 30217 kPa	1491
313.14 K, 30259 kPa	1491.1
313.14 K, 30299 kPa	1491.3
313.14 K, 30342 kPa	1491.3
313.14 K, 30376 kPa	1491.5
313.14 K, 30424 kPa	1491.8
313.14 K, 30466 kPa	1491.8
313.14 K, 30511 kPa	1492
313.14 K, 30547 kPa	1492
313.14 K, 30593 kPa	1492.2
313.14 K, 30624 kPa	1492.2
313.14 K, 30664 kPa	1492.6
313.14 K, 30690 kPa	1492.5
313.14 K, 30727 kPa	1492.7
313.14 K, 30775 kPa	1492.8
313.14 K, 30815 kPa	1493
313.14 K, 30847 kPa	1493.3
313.14 K, 30889 kPa	1493.2
313.14 K, 30921 kPa	1493.5
313.14 K, 30962 kPa	1493.5
